Assay results taken from publication PMC9966667, “Permeability Assessment of a High-Throughput Mucosal Platform” (Pharmaceutics, 2023).

Columns and labels:
[1] = PermeaPad 96-well plate permeability assay (absence of mucus); assay type: in vitro ADME; settings: for Papp at 5 h: not told, pH 7.4, PermeaPad without mucus
Description: (§1) The permeability assay was conducted in the absence (i.e., PermeaPad) and presence (i.e., PermeaPad + mucus) of the pathological mucus model. Stock solutions of drugs were prepared at 10 mg/mL in DMSO; working solutions were prepared by diluting the stocks within soluble concentration ranges (either 100 or 500 µM) in a 10 mM phosphate buffer (PB) (pH 7.4, 5% DMSO). The donor compartments of the PermeaPad plate were then filled with 200 µL of the drug working solution, while the acceptor compartments were filled with 400 µL of PB buffer (5% DMSO). […] (1) Papp=dQ/dt/C0×A where dQ represents the quantity of drug expressed as moles permeated into the acceptor compartment at time t (18.000 s), C0 is the initial concentration in the donor compartment, and A is the area of the PermeaPad membrane (0.15 cm^2).
(§2) The concentration of the drug in each acceptor well was determined using a Varian HPLC equipped with a 410 autosampler and a C18 column (150 × 2 mm, […], 100) and detected on a Varian 320 MS TQ mass spectrometer equipped with an electrospray ionization (ESI) source operating in positive or negative mode. The detector was used in multiple-reaction monitoring (MRM). Mobile phases composed of acetonitrile and water, 0.1% formic acid, or ammonium acetate (5 mM, pH 6.6), were pumped at 200 µL/min, following a gradient program. The injection volume was 5 µL. Quantifications were achieved according to a seven-point calibration curve specific to each compound.
(§3) A minimum of three replicates were performed for each compound, with and without mucus. All the quantitative data are reported as the mean ± standard deviation (SD). Statistical significance was calculated by applying the Student’s t test; a p < 0.05 was considered to be statistically significant and is indicated with asterisks (i.e., * p < 0.05, ** p < 0.01, *** p < 0.001, **** p < 0.0001).

[2] = PermeaPad + mucus permeability assay (cystic fibrosis mucus model on PermeaPad 96-well plate); assay type: in vitro ADME; settings: for Effect of mucus on Papp: Papp vs. Papp mucus, significance at p < 0.05; for Effect of mucus on Papp / statistical significance of the difference in permeation with vs without mucus: Student's t-test; for Papp at 5 h: not told, PermeaPad + mucus model, donor 100 or 500 µM in 10 mM PB pH 7.4, 5% DMSO, single timepoint 5 h, mean (±SD), n>=3, read-out: Papp mucus ± SD • 10^6; for permeation in the presence of mucus versus without mucus: PermeaPad + mucus vs PermeaPad; for statistical significance of the difference in permeation with vs without mucus: p < 0.05
Description: The pathological mucus model produced by Bac3Gel Lda. was prepared as previously described. […] The mucin suspension was prepared in mQ water.
Next, 20 µL of the mucus mixture was pipetted into the donor compartment of the PermeaPad plate (i.e., PermeaPad + mucus, from here on). The donor plate was carefully shaken to homogeneously distribute the mucus over the entire surface of the well. This step is also useful to get rid of the air bubbles that can form during the mixing of the mucus reagents. Before running the permeation measurements, the mucus was allowed to crosslink overnight by storing the PermeaPad plate at 4 °C.
as §1, §2, §3

mucins = test system: mucins; set-up: method as in PMID 26169405, PMID 7535039, PMID 33405639; settings: polycationic drugs; cited from earlier work
[3] = donor 100 or 500 µM in 10 mM PB pH 7.4, 5% DMSO, single timepoint 5 h, mean (±SD), n>=3, read-out: Papp ± SD • 10^6
[4] = 5 h, extremes of measured range, trametinib value set because below limit of detection, read-out: apparent permeability (Papp)

| Molecule | Papp at 5 h [1, 3] | Effect of mucus on Papp [2] | Papp at 5 h [2] | permeation in the presence of mucus versus without mucus [2] | statistical significance of the difference in permeation with vs without mucus [2] | Papp at 5 h [1, 4] | concentration in the acceptor compartment ([1]; PermeaPad, 5 h, HPLC-ESI-MS) | interaction with mucins (mucins) |
| --- | --- | --- | --- | --- | --- | --- | --- | --- |
| CC(=O)Nc1ccc(O)cc1 [Acetaminophen] | 4.55 ×10⁻⁶ cm/s | Reduced | 1.77 ×10⁻⁶ cm/s |  |  |  |  |  |
| Nc1nc2c(ncn2COCCO)c(=O)[nH]1 [Acyclovir] | 2.17 ×10⁻⁶ cm/s | Reduced | 0.83 ×10⁻⁶ cm/s |  |  |  |  |  |
| CCOC(=O)C1=C(COCCN)NC(C)=C(C(=O)OC)C1c1ccccc1Cl (centres unmarked) [Amlodipine] | 0.66 ×10⁻⁶ cm/s | None | 0.35 ×10⁻⁶ cm/s |  |  |  |  |  |
| COC(=O)N[C@H](C(=O)N[C@@H](Cc1ccccc1)[C@@H](O)CN(Cc1ccc(-c2ccccn2)cc1)NC(=O)[C@@H](NC(=O)OC)C(C)(C)C)C(C)(C)C [Atazanavir] | 0.19 ×10⁻⁶ cm/s | None | 0.13 ×10⁻⁶ cm/s |  |  |  |  |  |
| C[C@H]1[C@H](NC(=O)/C(=N\OC(C)(C)C(=O)O)c2csc(N)n2)C(=O)N1S(=O)(=O)O [Aztreonam] | 0.18 ×10⁻⁶ cm/s | None | 0.17 ×10⁻⁶ cm/s |  |  |  |  |  |
| CCS(=O)(=O)N1CC(CC#N)(n2cc(-c3ncnc4[nH]ccc34)cn2)C1 [Baricitinib] | 3.06 ×10⁻⁶ cm/s | Reduced | 0.87 ×10⁻⁶ cm/s |  |  |  |  |  |
| CN(C)C(=O)COC(=O)Cc1ccc(OC(=O)c2ccc(NC(=N)N)cc2)cc1 [Camostat] | 2.16 ×10⁻⁶ cm/s | Reduced | 0.81 ×10⁻⁶ cm/s |  |  |  |  |  |
| NC(=O)c1nc(F)c[nH]c1=O [Favipiravir] | 5.15 ×10⁻⁶ cm/s | Increased | 6.18 ×10⁻⁶ cm/s | higher permeation in the presence of mucus |  |  |  |  |
| CC(C)Cc1ccc(C(C)C(=O)O)cc1 (centres unmarked) [Ibuprofen] | 0.94 ×10⁻⁶ cm/s | None | 1.2 ×10⁻⁶ cm/s | higher permeation in the presence of mucus | not statistically significant |  |  |  |
| CC(C(=O)O)c1cccc(C(=O)c2ccccc2)c1 (centres unmarked) [Ketoprofen] |  |  |  | higher permeation in the presence of mucus |  |  |  |  |
| CC(CCc1ccccc1)NCC(O)c1ccc(O)c(C(N)=O)c1 (centres unmarked) [Labetalol] | 1.81 ×10⁻⁶ cm/s | Reduced | 1.11 ×10⁻⁶ cm/s |  |  |  |  |  |
| CCn1cc(C(=O)O)c(=O)c2cc(F)c(N3CCNCC3)cc21 [Norfloxacin] | 1.7 ×10⁻⁶ cm/s | None | 1.61 ×10⁻⁶ cm/s |  |  |  |  |  |
| CCN(CC)CCOC(=O)c1ccc(N)cc1 [Procaine] | 2.67 ×10⁻⁶ cm/s | Reduced | 0.6 ×10⁻⁶ cm/s |  |  |  |  |  |
| CC(C)NCC(O)COc1cccc2ccccc12 (centres unmarked) [Propranolol] | 4.26 ×10⁻⁶ cm/s | Reduced | 1.08 ×10⁻⁶ cm/s |  |  |  |  |  |
| CO[C@H]1/C=C/O[C@@]2(C)Oc3c(C)c(O)c4c(O)c(c(/C=N/N5CCN(C)CC5)c(O)c4c3C2=O)NC(=O)/C(C)=C\C=C\[C@H](C)[C@H](O)[C@@H](C)[C@@H](O)[C@@H](C)[C@H](OC(C)=O)[C@@H]1C [Rifampicin] | 0.7 ×10⁻⁶ cm/s | None | 0.71 ×10⁻⁶ cm/s |  |  |  |  |  |
| CO[C@H]1/C=C/O[C@@]2(C)Oc3c(C)c(O)c4c(O)c(c5c(nc6cc(C)ccn65)c4c3C2=O)NC(=O)/C(C)=C\C=C\[C@H](C)[C@H](O)[C@@H](C)[C@@H](O)[C@@H](C)[C@H](OC(C)=O)[C@@H]1C [Rifaximin] | 0.09 ×10⁻⁶ cm/s | None | 0.08 ×10⁻⁶ cm/s |  |  |  |  |  |
| O=C(Nc1c(Cl)cncc1Cl)c1ccc(OC(F)F)c(OCC2CC2)c1 [Roflumilast] | 0.01 ×10⁻⁶ cm/s | None |  |  |  | 0.0079 ×10⁻⁶ cm/s |  |  |
| CC(C)(C)NCC(O)c1ccc(O)c(CO)c1 (centres unmarked) [Salbutamol] | 2.34 ×10⁻⁶ cm/s | Reduced | 0.64 ×10⁻⁶ cm/s |  |  |  |  |  |
| O=C(O)c1ccccc1O [Salicylic acid] | 2.71 ×10⁻⁶ cm/s | None | 4.89 ×10⁻⁶ cm/s | higher permeation in the presence of mucus | not statistically significant |  |  |  |
| CC(C)(C)NC(=O)[C@@H]1C[C@@H]2CCCC[C@@H]2CN1C[C@@H](O)[C@H](Cc1ccccc1)NC(=O)[C@H](CC(N)=O)NC(=O)c1ccc2ccccc2n1 [Saquinavir] | 0.08 ×10⁻⁶ cm/s | Reduced | 0.01 ×10⁻⁶ cm/s |  |  |  |  |  |
| C=CC(=O)N1CCN(c2nc(=O)n(-c3c(C)ccnc3C(C)C)c3nc(-c4c(O)cccc4F)c(F)cc23)[C@@H](C)C1 [Sotorasib] | 0.48 ×10⁻⁶ cm/s | None | 0.21 ×10⁻⁶ cm/s |  |  |  |  |  |
| CN(C)[C@@H]1C(O)=C(C(N)=O)C(=O)[C@@]2(O)C(O)=C3C(=O)c4c(O)cccc4[C@@](C)(O)[C@H]3C[C@@H]12 [Tetracycline] |  | Reduced | 0.2 ×10⁻⁶ cm/s |  |  |  |  |  |
| CC(=O)Nc1cccc(-n2c(=O)n(C3CC3)c(=O)c3c(Nc4ccc(I)cc4F)n(C)c(=O)c(C)c32)c1 [Trametinib] |  | None |  |  |  | 0.001 ×10⁻⁶ cm/s | below the limit of detection |  |
| NC[C@H]1O[C@H](O[C@H]2[C@H](O)[C@@H](O[C@H]3O[C@H](CO)[C@@H](O)[C@H](N)[C@H]3O)[C@H](N)C[C@@H]2N)[C@H](N)C[C@@H]1O [tobramycin] |  |  |  |  |  |  |  | strongly interact with mucins |
| colistin |  |  |  |  |  |  |  | strongly interact with mucins |
| polymyxin |  |  |  |  |  |  |  | strongly interact with mucins |
